Experimental data reported in patent publication US20140024576A1, “HEPTOSE DERIVATIVES FOR USE IN THE TREATMENT OF BACTERIAL INFECTIONS” (priority 2010, published 2014).

Assays:
[1] = biological target: GmhA of E. coli (Escherichia coli, UniProt P63224); assay: Inhibition of the enzymatic activity of GmhA (luminescent assay); format: biochemical
Protocol: Inhibition of the Enzymatic Activity of GmhA (Luminescent Assay):
The assay buffer “AB” contained 50 mM Hepes pH7.5, 1 mM MnCl2, 25 mM KCl, 0.012% Triton-X100 and 1 mM dithiothreitol (DTT) and 0.1 μM Myelin basic protein (MBP). The following components were added in a white polystyrene Costar plate up to a final volume of 30 μL: 10 μL inhibitor dissolved in DMSO/water 50/50, and 20 μL GmhA of E. coli in AB. After 30 min of pre-incubation at room temperature, 30 μL of Substrates mix in AB were added in each well to a final volume of 60 μL. This reaction mixture was then composed of 2 nM GmhA, 3 μM sedoheptulose-7-phosphate (Sigma), 3 μM ATP (Sigma) and 50 nM HldE of E. coli in assay buffer. After 30 min of incubation at room temperature, 100 μL of the revelation mix were added to a final volume of 160 μL, including the following constituents at the respective final concentrations: 10000 light units/ml luciferase (Sigma), 20 μM D-luciferin (Sigma), 100 μM N-acetylcysteamine (Aldrich). Luminescence intensity was immediately measured on Luminoskan (Thermofischer) and converted into inhibition percentages. For IC50 determinations, the inhibitor was tested at 6 to 10 different concentrations, and the related inhibitions were fitted to a classical langmuir equilibrium model using XLFIT (IDBS).

[2] = biological target: HldE of E. coli (HldE-K) (Escherichia coli, UniProt P76658); assay: Inhibition of the enzymatic activity of HldE-K (luminescent assay on kinase activity); format: biochemical
Protocol: Inhibition of the Enzymatic Activity of HldE-K (Luminescent Assay On Kinase Activity):
The assay buffer “AB” contained 50 mM Hepes pH7.5, 1 mM MnCl2, 25 mM KCl, 0.012% Triton-X100 and 1 mM dithiothreitol (DTT) and 0.1 μM Myelin basic protein (MBP). The following components were added in a white polystyrene Costar plate up to a final volume of 30 μL: 10 μL inhibitor dissolved in DMSO/water 50/50, and 20 μL HldE of E. coli in AB. After 30 min of pre-incubation at room temperature, 30 μL of Substrates mix in AB were added in each well to a final volume of 60 μL. This reaction mixture was then composed of 3 nM HldE, 0.2 μM β-heptose-7-phosphate (custom synthesis) and 0.2 μM ATP (Sigma) in assay buffer. After 30 min of incubation at room temperature, 200 μL of the revelation mix were added to a final volume of 260 µL, including the following constituents at the respective final concentrations: 5000 light units/ml luciferase (Sigma), 30 μM D-luciferin (Sigma), 100 μM N-acetylcysteamine (Aldrich). Luminescence intensity was immediately measured on Luminoskan (Thermofischer) and converted into inhibition percentages. For IC50 determinations, the inhibitor was tested at 6 to 10 different concentrations, and the related inhibitions were fitted to a classical Langmuir equilibrium model using XLFIT (IDBS).

HldE of E. coli (HldE-K), sequence (P76658 whole entry): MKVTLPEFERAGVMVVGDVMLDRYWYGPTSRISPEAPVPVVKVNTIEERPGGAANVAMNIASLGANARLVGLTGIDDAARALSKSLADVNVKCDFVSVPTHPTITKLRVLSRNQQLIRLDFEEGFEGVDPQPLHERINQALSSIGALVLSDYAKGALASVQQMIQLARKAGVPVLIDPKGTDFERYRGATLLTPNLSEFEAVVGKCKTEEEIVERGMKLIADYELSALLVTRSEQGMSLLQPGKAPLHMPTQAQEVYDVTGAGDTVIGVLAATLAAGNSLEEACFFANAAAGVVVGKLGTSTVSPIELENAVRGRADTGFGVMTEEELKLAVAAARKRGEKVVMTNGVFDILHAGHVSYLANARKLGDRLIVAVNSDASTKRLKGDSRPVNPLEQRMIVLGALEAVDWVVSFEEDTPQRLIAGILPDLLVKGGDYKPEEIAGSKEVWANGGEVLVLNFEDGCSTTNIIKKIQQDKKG
GmhA of E. coli, sequence (P63224 whole entry): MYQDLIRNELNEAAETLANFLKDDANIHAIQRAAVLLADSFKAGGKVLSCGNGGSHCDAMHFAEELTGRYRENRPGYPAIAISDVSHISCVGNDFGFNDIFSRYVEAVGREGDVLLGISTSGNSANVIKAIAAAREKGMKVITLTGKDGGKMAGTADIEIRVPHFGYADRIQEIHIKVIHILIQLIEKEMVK

Row | SMILES | IC50 [1] [µM] | IC50 [2] [µM]
1 | CCC[C@H]1O[C@H]([C@H](O)COP(=O)(O)O)[C@@H](O)[C@H](O)[C@@H]1O [Example 8, 1-Deoxy-1-propyl-D-glycero-α-D-manno-heptopyranose 7-phosphate] | < 100 | < 100
2 | CC1(O)OC(C(O)COP(=O)(O)O)C(O)C(O)C1O [Example 12, 1-C-Methyl 7-O-phosphoryl-D-glycero-α-D-manno-heptopyranose] | < 100 | < 100
3 | CO[C@@H]1O[C@H]([C@H](O)COP(=O)(O)O)[C@@H](O)[C@H](O)[C@@H]1O [Example 3, 1-O-Methyl-D-glycero-β-D-manno-heptopyranose 7-phosphate] | < 100 | 
4 | CO[C@H]1OC([C@H](O)COP(=O)(O)O)[C@@H](O)C(O)C1O (stereo partly drawn) [Example 1, Methyl 7-O-phosphate-D-glycero-α-D-gluco-heptopyranoside] | < 100 | < 100
5 | O=P(O)(O)OC[C@@H](O)[C@H]1O[C@@](O)(CO)[C@@H](O)[C@@H](O)[C@@H]1O [Example 13, 1-C-Hydroxymethylene 7-O-phosphoryl-D-glycero-D-manno-heptopyranose] | < 100 | < 100
6 | O=P(O)(O)OC[C@@H](O)[C@H]1O[C@@H](CO)[C@@H](O)[C@@H](O)[C@@H]1O [Example 11, 1-β-C-Hydroxymethylene 1-Deoxy-7-O-phosphoryl-D-glycero-D-manno-heptopyranose] | < 100 | < 100
7 | O=P(O)(O)OC[C@@H](O)[C@H]1O[C@H](F)[C@@H](O)[C@@H](O)[C@@H]1O [Example 6, α-Fluoro 7-O-phosphoryl-D-glycero-α-D-manno-heptopyranoside] | < 100 | < 100
